Measurements: patent US8106055B2, “Substituted amide compounds” (Gruenenthal GmbH, priority 2007, dated 2012)

What was measured:
[1] = target: T1, human bradykinin 1 receptor (B1R) (Homo sapiens, UniProt P46663); experiment: Functional investigation on the human bradykinin 1 receptor (B1R), Ca2+ FLIPR assay in CHO K1 hB1R cells; format: cell-based; details: test substance 10 μM, Ca2+ FLIPR, CHO K1 hB1R cells; for B1R Ant. h [10 μM] % Inhibition: B1R antagonism human; for inhibition at 10 µM: CHO-K1, B1R antagonism human, read-out: B1R Ant. h [10 μM] % Inhibition
T1 construct: expressed in transfected cells; host or cells: CHO K1 cells
T1 sequence (P46663 1-353): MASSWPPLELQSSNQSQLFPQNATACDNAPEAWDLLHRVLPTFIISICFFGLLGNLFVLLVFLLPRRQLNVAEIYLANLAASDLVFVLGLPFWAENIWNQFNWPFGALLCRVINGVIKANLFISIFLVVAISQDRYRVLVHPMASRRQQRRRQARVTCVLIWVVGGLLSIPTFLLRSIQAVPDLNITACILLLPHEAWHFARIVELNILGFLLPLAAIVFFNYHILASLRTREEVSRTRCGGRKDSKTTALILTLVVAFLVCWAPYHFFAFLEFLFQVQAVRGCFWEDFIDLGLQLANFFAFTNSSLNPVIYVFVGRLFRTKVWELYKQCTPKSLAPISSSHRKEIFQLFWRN
Method in brief: (§1)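 Cells were dye-loaded with Fluo-4 plus probenecid, then test substances added and Ca2+ influx compared with agonist control for % activation. After 10-20 min, EC80 agonist (Lys-Des-Arg9-bradykinin human; Des-Arg9-bradykinin rat) was applied; suppression gave % inhibition and IC50 values.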

[2] = target: T2, bradykinin 1 receptor (B1R) of the rat (Rattus norvegicus, UniProt P97583); experiment: Functional investigation on the rat bradykinin 1 receptor (B1R), Ca2+ FLIPR assay in CHO K1 rB1R cells; format: cell-based; details: test substance 10 μM, Ca2+ FLIPR, CHO K1 rB1R cells; for B1R Ant. r [10 μM] % Inhibition: B1R antagonism rat; for inhibition at 10 µM: CHO-K1, B1R antagonism rat, read-out: B1R Ant. r [10 μM] % Inhibition
T2 construct: expressed in transfected cells; host or cells: CHO K1 cells
T2 sequence (P97583 1-337): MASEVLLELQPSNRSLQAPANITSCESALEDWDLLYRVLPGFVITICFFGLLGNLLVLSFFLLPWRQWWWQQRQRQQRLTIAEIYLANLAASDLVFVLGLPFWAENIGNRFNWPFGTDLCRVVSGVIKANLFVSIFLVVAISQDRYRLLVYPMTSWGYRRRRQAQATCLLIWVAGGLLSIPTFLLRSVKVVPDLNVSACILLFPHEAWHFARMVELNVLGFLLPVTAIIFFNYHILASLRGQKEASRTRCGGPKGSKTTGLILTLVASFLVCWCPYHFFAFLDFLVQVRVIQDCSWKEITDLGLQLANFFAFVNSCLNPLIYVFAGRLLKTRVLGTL
Method in brief: as §1

SMILES | B1R Ant. h [10 μM] % Inhibition [1] [%] | B1R Ant. r [10 μM] % Inhibition [2] [%] | inhibition at 10 µM [1] [%] | inhibition at 10 µM [2] [%]
CN(C)C(c1cccc(F)c1)C1CCC(CNC(=O)COCC2CCCN(S(=O)(=O)c3ccccc3)C2)CC1 (stereo not shown) [Example 220] | 6 | 7 |  | 
CN(C)C(c1cccc(F)c1)C1CCC(CNC(=O)COC2CCN(S(=O)(=O)c3ccc(F)cc3)C2)CC1 (stereo not shown) [Example 275] | 15 | 17 |  | 
CN(C)C(c1cccc(F)c1)C1CCC(NC(=O)COCCN(C)S(=O)(=O)c2ccc(OC(F)(F)F)cc2)CC1 (stereo not shown) [Example 246] | 10 | 15 |  | 
COc1ccc(S(=O)(=O)N(C)CCOCC(=O)NCC2CCC(C(c3ccccc3)N(C)C)CC2)cc1 (stereo not shown) [Example 242] | 39 | 22 |  | 
CN(C)C(c1cccc(F)c1)C1CCC(NC(=O)COCCN(C)S(=O)(=O)c2c(Cl)cc(Cl)cc2Cl)CC1 (stereo not shown) [Example 208] | 89 | 25 |  | 
CN(C)C(c1cccc(F)c1)C1CCC(NC(=O)COC2CCN(S(=O)(=O)c3ccc(Cl)cc3)C2)CC1 (stereo not shown) [Example 204] | 2 | −13 |  | 
Cc1ccc(S(=O)(=O)N(C)CCOCC(=O)NCC2CCC(C(c3ccc(Cl)cc3)N(C)C)CC2)cc1 (stereo not shown) [Example 273] | 25 | 37 |  | 
COc1ccc(S(=O)(=O)N2CCCCC2COCC(=O)NC2CCC(C(c3cccc(F)c3)N(C)C)CC2)cc1 (stereo not shown) [Example 255] | 37 | 47 |  | 
CN(C)C(c1cccc(F)c1)C1CCC(NC(=O)COCC2CCCN2S(=O)(=O)c2ccc(Cl)c(Cl)c2)CC1 (stereo not shown) [Example 211] | 33 | 10 |  | 
CN(C)C(c1cccs1)C1CCC(CNC(=O)COC2CCN(S(=O)(=O)c3ccccc3)CC2)CC1 (stereo not shown) [Example 276] | −12 | 14 |  | 
CN(C)C(c1ccccc1)C1CCC(NC(=O)COC2CCN(S(=O)(=O)c3c(Cl)cc(Cl)cc3Cl)C2)CC1 (stereo not shown) [Example 609, N-[4-(dimethylaminophenylmethyl)-cyclohexyl]-2-[1-(2,4,6-trichlorobenzenesulfonyl)-pyrrolidin-3-yloxy]-acetamide] |  |  | 64 | 32
CN(C)C(c1cccc(F)c1)C1CCC(NC(=O)COCCN(C)S(=O)(=O)c2ccc(F)cc2)CC1 (stereo not shown) [Example 205] | −11 | 5 |  | 
COc1ccc(S(=O)(=O)N2CCC(OCC(=O)NCCC3CCC(C(c4cccc(F)c4)N(C)C)CC3)C2)cc1OC (stereo not shown) [Example 262] | −6 | 36 |  | 
COc1cc(C)c(S(=O)(=O)N2CCC(OCC(=O)NCCC3CCC(C(c4cccc(F)c4)N(C)C)CC3)C2)c(C)c1C (stereo not shown) [Example 253] | 47 | 18 |  | 
COc1cc(C)c(S(=O)(=O)N(CCOCC(=O)NCCC2CCC(C(c3cccs3)N(C)C)CC2)Cc2ccccc2)c(C)c1C (stereo not shown) [Example 254] | 27 | −1 |  | 
CN(C)C(c1cccs1)C1CCC(CCNC(=O)COC2CCCCC2N(C)S(=O)(=O)c2ccc(Cl)c(Cl)c2)CC1 (stereo not shown) [Example 214] | −2 | 19 |  | 
CN(C)C(c1ccc(Cl)cc1)C1CCC(CNC(=O)COC2CCCCC2N(C)S(=O)(=O)c2ccc(Cl)c(Cl)c2)CC1 (stereo not shown) [Example 269] | 7 | −3 |  | 
CN(C)C(c1ccccc1)C1CCC(CNC(=O)COCCN(C)S(=O)(=O)c2c(Cl)cc(Cl)cc2Cl)CC1 (stereo not shown) [Example 614, N-[4-(dimethylaminophenylmethyl)-cyclohexylmethyl]-2-{2-[(2,4,6-trichlorobenzenesulfonyl)-methylamino]-ethoxy}-acetamide] | 102 | 29 |  | 
CN(C)C(c1ccc(F)cc1)C1CCC(CNC(=O)COCC2CCCN2S(=O)(=O)c2ccc(Cl)c(Cl)c2)CC1 (stereo not shown) [Example 267] | 68 | −13 |  | 

SMILES | B1R Ant. h [10 μM] % Inhibition [1] [%] | B1R Ant. r [10 μM] % Inhibition [2] [%] | inhibition at 10 µM [1] [%] | inhibition at 10 µM [2] [%]
CN(C)C(c1ccccc1)C1CCC(CNC(=O)COC2CCN(S(=O)(=O)c3ccc(F)cc3)C2)CC1 (stereo not shown) [Example 219] | −1 | 14 |  | 
COc1cc(C)c(S(=O)(=O)N2CCC(OCC(=O)NCCC3CCC(C(c4cccc(F)c4)N(C)C)CC3)CC2)c(C)c1C (stereo not shown) [Example 232] | 17 | 5 |  | 
COc1cc(C)c(S(=O)(=O)N2CCN(CCOCC(=O)NC3CCC(C(c4ccc(F)cc4)N(C)C)CC3)CC2)c(C)c1C (stereo not shown) [Example 222] | 54 | 10 |  | 
CN(C)C(c1cccc(F)c1)C1CCC(CCNC(=O)COCCN(C)S(=O)(=O)c2ccc(OC(F)(F)F)cc2)CC1 (stereo not shown) [Example 215] | 1 | 22 |  | 
CN(C)C(c1ccc(Cl)cc1)C1CCC(CCNC(=O)COCCN(C)S(=O)(=O)c2c(Cl)cccc2Cl)CC1 (stereo not shown) [Example 274] | 100 | 61 |  | 
CN(C)C(c1cccc(F)c1)C1CCC(CNC(=O)COC2CCN(S(=O)(=O)c3ccc(Cl)cc3Cl)C2)CC1 (stereo not shown) [Example 225] | 51 | 17 |  | 
CN(C)C(c1cccs1)C1CCC(CCNC(=O)COC2CCN(S(=O)(=O)c3ccccc3)CC2)CC1 (stereo not shown) [Example 230] | −16 | −1 |  | 
CN(C)C(c1cccc(F)c1)C1CCC(CNC(=O)COCCN(C)S(=O)(=O)c2ccc(F)cc2)CC1 (stereo not shown) [Example 229] | 7 | 8 |  | 
COc1ccc(S(=O)(=O)N2CCCCC2CCOCC(=O)NC2CCC(C(c3ccc(F)cc3)N(C)C)CC2)cc1 (stereo not shown) [Example 212] | 49 | 41 |  | 
COc1cc(C)c(S(=O)(=O)N2CCCC(OCC(=O)NCCC3CCC(C(c4cccc(F)c4)N(C)C)CC3)C2)c(C)c1C (stereo not shown) [Example 221] | 21 | 17 |  | 
CN(C)C(c1cccc(F)c1)C1CCC(CCNC(=O)COC2CCN(S(=O)(=O)c3ccc(Cl)cc3Cl)C2)CC1 (stereo not shown) [Example 259] | 72 | 25 |  | 
COc1cc(C)c(S(=O)(=O)N(C)CCOCC(=O)NCC2CCC(C(c3cccc(F)c3)N(C)C)CC2)c(C)c1 (stereo not shown) [Example 248] | 104 | 102 |  | 
COc1ccc(S(=O)(=O)N2Cc3ccccc3CC2COCC(=O)NC2CCC(C(c3ccc(F)cc3)N(C)C)CC2)cc1 (stereo not shown) [Example 234] | 50 | 20 |  | 
CCN(CCOCC(=O)NCC1CCC(C(c2ccccc2)N(C)C)CC1)S(=O)(=O)c1c(C)cc(OC)c(C)c1C (stereo not shown) [Example 231] | 9 | 29 |  | 
COc1cc(C)c(S(=O)(=O)N(C)CCOCC(=O)NC2CCC(C(c3ccccc3)N(C)C)CC2)c(C)c1 (stereo not shown) [Example 239] | 104 | 97 |  | 
CN(C)C(c1cccc(F)c1)C1CCC(CCNC(=O)COCC2CCCN2S(=O)(=O)c2ccc(Cl)c(Cl)c2)CC1 (stereo not shown) [Example 202] | 48 | −15 |  | 
COc1ccc(S(=O)(=O)N(C)CCOCC(=O)NC2CCC(C(c3cccs3)N(C)C)CC2)cc1OC (stereo not shown) [Example 206] | −5 | 20 |  | 
CN(C)C(c1ccccc1)C1CCC(NC(=O)COCCN(C)S(=O)(=O)c2c(Cl)cc(Cl)cc2Cl)C1 (stereo not shown) [Example 615, N-[3-(dimethylaminophenylmethyl)-cyclopentyl]-2-{2-[(2,4,6-trichlorobenzenesulfonyl)-methylamino]-ethoxy}-acetamide] |  |  | 95 | 26
CN(C)C(c1ccc(F)cc1)C1CCC(CCNC(=O)COC2CCCCC2N(C)S(=O)(=O)c2ccc(Cl)c(Cl)c2)CC1 (stereo not shown) [Example 244] | 21 | −5 |  | 
